Measurements from a melting point compilation (Tetko et al.; mined from patent text by program, amines drawn as free bases though some values may be those of a salt).

Structure (SMILES) | melting point
COc1ccc(S(=O)(=O)Nc2ccccc2NC(=O)c2cccnc2C)cc1 | 148 to 149 °C
Cc1cc(F)ccc1-c1nc(NC2CCCCC2)nc2c1CCC(=O)N2c1ccccc1F | 181 to 182 °C
CC(C)(C)OC(=O)C1CC(Cc2ccccc2)C(=O)N1C(=O)OC(C)(C)C (stereo not given) | 125 °C
c1ccc(CNn2cnnc2-c2ccc(CN3CCCCCC3)s2)cc1 | 79 to 81 °C
O=C(CC(=O)C(F)(F)F)Nc1cc(-c2cccs2)n[nH]1 | 259 to 261 °C
Cc1cc(C(O)(c2cc(C)sc2C)c2cc(C)sc2C)c(C)s1 | 110 to 111 °C
CON(C)C(=O)Nc1ccc(CC#N)cc1Cl | 104 °C
COC(=O)C1=C(Cl)C(=NO)CC(c2ccc(Cl)c(OC)c2F)N1 (stereo not given) | 174 to 176 °C
O=C1c2ccccc2C(O)N1CCN1CCC(c2noc3cc(F)ccc23)CC1 (stereo not given) | 172 to 173 °C
COc1cc2c(=O)cc[nH]c2cc1OCc1ccccc1 | 235 to 236 °C
CCC(CC)c1ccc(Cl)c2nc3n(c12)CCCCN3c1ccc(Cl)cc1 | 133 to 135 °C
CC1(C)Nc2ncc(-c3ccc(C(=O)N4CCC[C@H]4CN4CCCC4)cc3)cc2N(Cc2cc(F)ccc2F)C1=O | 171 to 172 °C
O=c1ccc(-c2ccc3c(c2)CCN(C2CCC2)CC3)n[nH]1 | 250 to 251 °C
CCC1CCc2cc3c(cc2C1)C(=O)c1cccc(OC)c1C3=O (stereo not given) | 206 to 208 °C
COC(=O)NC1CN(C(=O)c2cc(OC)c(OC)c(OC)c2)CCN1C(=O)C1=Cc2cc(OC)c(OC)cc2CCC1 (stereo not given) | 143 to 145 °C
O=C(O)/C=C/c1ccnc(-c2nc(=O)c3ccccc3s2)c1 | 284 to 285 °C
COC1=C(OC)C(=O)C(CCCCC#CCCCCO)=C(C)C1=O | 52 to 53 °C
CCCCCN(CCCCC)C(=O)C(Cc1ccc(OCC(=O)O)c(C(=O)O)c1)NC(=O)C(Cc1ccccc1)NC(=O)OC(C)(C)C (stereo not given) | 87 to 90 °C
Cc1nc(NC(=O)c2cnn3c(C(F)F)cc(-c4ccc(C(F)(F)F)cc4)nc23)sc1S(=O)(=O)NC(CO)CO | 217 °C
NC(=S)NC1Cc2ccccc2C1 | 155 °C
NC(=O)c1cc(Cl)c(Cl)cc1C(=O)O | 197 to 201 °C
CN(CCO)c1ccc(C=Cc2ccc(S(C)(=O)=O)cc2)cc1 | 201 to 204 °C
CN(C)CCN(c1ccccc1NCCOc1ccc(Cl)cc1)S(=O)(=O)c1ccc(Cl)cc1 | 99 °C
COc1ccc(CCc2oc3ccc(Br)cc3c2CCl)cc1 | 70 to 75 °C

Structure (SMILES) | melting point
N#Cc1ccc2c(c1)CCCC2(O)c1ccns1 (stereo not given) | 182 to 184 °C
Cc1nc2c(OCc3c(Cl)ccc(N(C)C(=O)CO)c3Cl)cccn2c1Br | 217 to 218 °C
COc1cncc(OC)c1CCCOc1cccnc1Cc1cccc(Br)c1 | 153 to 165 °C
CCOC(=O)c1c(Cl)nc(CC)n1Cc1ccc2oc(-c3ccccc3NC(=O)OC(C)(C)C)c(Br)c2c1 | 73 to 74 °C
CC(=O)N(O)CCc1ccc2c(c1)C(=O)c1ccccc1CO2 | 113 to 115 °C
NC(=O)c1sc2nccc(N3CCCN(c4ccccc4Cl)CC3)c2c1N | 206 to 210 °C
Cc1ccc(-n2nc(C(F)F)cc2-c2ccc(S(C)(=O)=O)cc2)cc1Cl | 137 to 139 °C
CC(=O)SCc1ccccc1CCC(=O)Nc1cccc(C(=O)OCCBr)c1 | 85 to 88 °C
NC1=C(N=O)C(=O)N2CCN=C2N1Cc1ccc(F)cc1 | 248 to 250 °C
COc1ccc2oc(C(=O)NCc3ccccc3)c(OC(C)C)c2c1 | 68 to 69 °C
COc1cc(C(C)=NOCc2ccc3nonc3c2)ccc1F | 65 °C
CC(C)(C)c1nc(Cl)n(-c2c(Cl)cc(Cl)cc2Cl)n1 | 98 to 98.5 °C
OCc1cccc2c(-c3ccc(Br)cc3)nccc12 | 226 °C
CCOC(=O)NCc1cccc(-c2ccnc3c(C#N)cnn23)c1 | 140 to 142 °C
Cc1cn(NCc2cc(C(C)(C)C)c(O)c(C(C)(C)C)c2)cn1 | 150 to 151 °C
CC(C)(C(=O)O)C(c1ccc(OCc2ccc3ccccc3n2)cc1)c1ccc(OCc2ccc3ccccc3n2)cc1 | 124 to 127 °C
COc1ccc(/C=C/c2ccc(Cl)cc2[N+](=O)[O-])c([N+](=O)[O-])c1 | 202 °C
COc1cc(-c2c(C)c3cc(O)ccc3n2Cc2ccc(OCCN3CCCCC3)cc2)ccc1O | 161 to 163 °C
COc1cc(OCc2ccccn2)ccc1/C=C/c1cc(/C=C/c2ccc(OCc3ccccn3)cc2OC)[nH]n1 | 195 to 197 °C
CC[C@@]12C[C@@](C)(O)[C@](O)(c3ccccc3)C[C@H]1CCc1cc(OCC(C)(C)O)ccc12 | 190 to 193 °C
CCOC(=O)c1c(N2CCN(C(=O)c3cccs3)CC2)c2cccnc2n(Cc2ccc(OC(C)=O)cc2)c1=O | 123 °C
CC(C)(C)OC(=O)NCCNC(=O)c1ccc(Cl)cn1 | 106 to 108 °C
O=[N+]([O-])c1cc(-c2nnn[nH]2)ccc1OCc1ccccc1 | 178 to 180 °C
Cc1nn2ccccc2c1C=O | 77 to 79 °C

Structure (SMILES) | melting point
COc1ccc(-c2c(CO)c(CO)c3sc4ccccc4n23)cc1 | 156 to 157 °C
COc1nncc(-c2cccc(C(F)(F)F)c2)n1 | 95 to 97 °C
CCOCCOc1cc(OC)c(C(CC(=O)Nc2cc(C(N)=O)ccc2C(C)(C)C)CC(C)C)cc1Cl (stereo not given) | 180 to 181 °C
CC(C)(C)OC(=O)/C=C/c1cc2ncc(C#N)c(Cl)c2s1 | 193 to 194 °C
COc1ccc(NC(C)c2oc3ccc(F)cc3c(=O)c2-c2cccc(F)c2)cc1 (stereo not given) | 152 to 156 °C
CCCCCC(=O)ONC(=N)c1ccc(NC(=O)CCCC(=O)Nc2ccc(C(=N)NOC(=O)CCCCC)cc2)cc1 | 182 to 184 °C
COc1cc2c(Nc3ccc(Sc4nccn4C)c(Cl)c3)c(C#N)cnc2cc1/C=C/CCCN1CCN(C)CC1 | 215 to 221 °C
CC(C)(C)OC(=O)NC(Cc1cnc2ccccc2c1)C(=O)O (stereo not given) | 159 to 160 °C
COC(=O)c1cc(N)c(F)c(Br)n1 | 187 to 190 °C
C#CCCCCCCCCC(=O)N[C@H]1CCCNC(=O)C1 | 73 to 75 °C
Cc1ncc2n1-c1ccc(Cl)cc1C(c1ccccc1F)N=C2 (stereo not given) | 180 to 181 °C
O=c1cc2c(nn1-c1ccc(Cl)cc1)-c1cccc(Cl)c1SCC2 | 166 to 168 °C
C=CCOCc1c(CN(C)C[C@@H](O)c2ccccn2)sc2c(=O)c(C(=O)NCc3ccc(Cl)cc3)cn(C)c12 | 125 to 127 °C
CN(C)C(=O)C1(N2CCCC2)CCNCC1 | 150 °C
CCN(C=C1C(=O)N(c2cccc(Cl)c2)c2ccccc21)CC | 74 to 75.5 °C
CCOC(=O)C(SC)=C(O)C1C(C(=O)O)C1(C)C (stereo not given) | 114 °C
O=C(Nc1ccc(-n2cnc(Cl)c2Cl)cc1)Nc1ccc(C(F)(F)F)cc1 | 221 to 224 °C
N#Cc1c(Nc2cccnc2)nn(Cc2ccccc2)c1N | 191 to 192 °C
O=[N+]([O-])c1ccc(CO)c(CCO)c1 | 79 to 81 °C
Clc1cc(Cl)nc(N2CCCC2)n1 | 95 to 98 °C
O=C1CCC(c2ccc3[nH]c(-c4cccnc4)cc3c2)=NN1 | 298 to 300 °C
Cc1ccc(C(=O)Nc2ccc(CN(C)C)c(C(F)(F)F)c2)cc1Br | 156 to 157 °C
